Tests used:
[1] = tested on: HL-60 cells; assay: NBT reduction assay of differentiation in HL-60 cells; assay type: cell-based, human; conditions: for NBT reduction, ATRA alone (%) / NBT reduction, Decitabine alone (%): 4 days; for cells differentiated, NBT reduction assay: HL-60 cells, 4 days (FIG. 3); for NBT (%): 10 days
From the text: The NBT screen works due to changes in the oxidoreductases during differentiation that lead to increases in rates of NBT reduction. NBT is reduced due to the production of superoxide that is catalyzed by an NADPH oxidase. […] A quantitative NBT reduction assay is ideal for this type of screen as it is simple, sensitive, quantitative, requires minimal cells, has been proven to have low well to well variability, and the amount of reduced NBT is proportional to the number of cells reducing the dye as well as the amount reduced by each cell.
(§1) […] […] Differentiation is determined in the 96 well plates by incubating the cells with 1 mg/ml of NBT and 200 ng/ml of PMA as the stimulant for the respiratory burst for 35 minutes at 37° C. The reaction can then be stopped with HCL and the formazan will be solubilized with DMSO. Finally, the reaction mixture will be read spectrophotometricaly at 560 nm in a plate reader.
as §1, with “will” for “can”
The assays are done using the colorimetric process. The NBT reduction assay measures the respiratory burst and is done by stimulating the respiratory burst in cells with PMA and then looking for a color change in the NBT dye.

[2] = tested on: HL-60 subcutaneous tumors; assay: Established HL-60 subcutaneous tumor xenograft in nude mice; assay type: in vivo
Protocol: Nude mice (5 per experimental group) were injected with 5×10^7 HL-60 cells bilaterally into the flank. 9 days after tumor cell inoculation, the indicated drugs were injected I.P. three times a week for 3 weeks. […] Representative picture of the mice at the end of the study period (B). Representative picture of tumors dissected from the indicated mice. (C). Average weights of tumors dissected from all mice (D).
(§2) In order to further assess the in vivo potential of 6BT and Securinine, mouse xenograft experiments were performed. In the first model, the ability of 6BT and Securinine to inhibit established HL-60 subcutaneous leukemic tumor growth in nude mice was assessed. […] In the second model system, the ability of 6BT to prevent either HL-60 or MV-411 tumor formation in nude mice was assessed.
(§3) This Example assed the effects of securinine and its analogues in mice. […] HL-60 cell is an AML cell line commonly used for in-vitro studies and typically they are classified as M2 subtype. […] Therefore this was the highest dose that could be safely utilized.
Next we repeated the mouse xenograft experiments using i.p. drug administration (20 mg/kg), but with twice a day dosing again using HL-60 cell tumors.
Securinine (20 mg/kg) or vehicle ([…]) was injected i.p. into mice starting 10 days after HL-60 cell inoculation bilaterally into the flanks of nude mice (5 mice per group).

[3] = tested on: HL-60 cells; assay: Flow cytometry of CD11b and CD14 cell surface markers; assay type: cell-based, human; conditions: for CD11b positive / CD14 positive: 4 days
Protocol: HL-60 cells were treated with the indicated compounds for 4 days, the cells were stained with CD11b-PE and CD14-FITC, and flow cytometric analysis was performed.

[4] = tested on: GABA A receptor; conditions: compared with securinine; cited from earlier work
[5] = tested on: HL-60 cells; assay: Morphology, cytospin with Wright-Giemsa stain; assay type: cell-based, human; conditions: 4 days
Protocol: HL-60 cells were treated with the indicated compounds for 4 days. Cytospin preparations were prepared and the cells were stained with Wright-Giemsa stain.

[6] = tested on: p21; assay: p21 Western blot in HL-60 cells; assay type: cell-based, human; conditions: 1, 3, or 5 days
Protocol: (§4) HL-60 cells were treated with the indicated compounds for 1, 3, or 5 days and cells were lysed. Western blot analysis was performed with p21, Bcl-2, and actin antibodies.

[7] = tested on: normal human lymphocytes, normal human bone marrow, mouse embryonic fibroblasts, and human umbilical vein endothelial cells; assay: Toxicity on normal cells; assay type: cell-based
From the text: In order to further assess the toxicity of 6BT and Securinine, normal human lymphocytes, normal human bone marrow, mouse embryonic fibroblasts, and human umbilical vein endothelial cells were examined.

[8] = tested on: primary patient leukemic samples; assay: Differentiation and cell death in other AML cell lines and primary patient leukemic samples; assay type: cell-based, human
Protocol: FIGS. 7(A-B) illustrate 6BT and securinine have potent differentiation and cell death effects on primary leukemic samples. Primary patient leukemic samples were stained with CD34+ and sorted by flow cytometry. Leukemic cells were treated with the indicated compounds (6BT […]) for up to 7 days. A. Representative pictures showing morphological differentiation of primary patient samples B. 6BT and Securinine treated primary leukemic cells show either differentiation by NBT reduction or cell death.
In several cases, the compounds were able to induce a higher amount of differentiation than ATRA. It should be noted, that though ATRA is only clinically useful for APL, it is well known to potently induce the differentiation of many other AML cell lines in vitro. […] Though the exact mechanisms are not yet clear, certain leukemic cells appear to preferentially undergo cell death in response to 6BT and Securinine prior to full differentiation.
We then tested the effects of securinine on patient samples. […] Unfortunately, many of the patient samples were not suitable for analysis. A significant portion of the cells that were obtained were either nonviable or contaminated with bacteria.

[9] = tested on: Bcl-2; assay: Bcl-2 Western blot in HL-60 cells; assay type: cell-based, human; conditions: 1, 3, or 5 days
Protocol: as §4

[10] = tested on: CEBPβ; assay: CEBPβ expression by real time PCR in HL-60 cells; assay type: cell-based, human; conditions: 1, 3, or 5 days
Protocol: (§5) FIG. 11 illustrates graphs showing securinine and 6BT downregulate c-myc expression and upregulate CEBPB. HL-60 cells were treated with the indicated compounds for 1, 3, or 5 days and total RNA was prepared. The relative expression of c-myc and CEPβ was determined by real time PCR.

[11] = tested on: HL-60 cells; assay: Cell cycle, propidium iodide flow cytometry; assay type: cell-based, human; conditions: 4 days
Protocol: HL-60 cells were treated with the indicated compounds for 4 days and the cells were stained with propidium iodide and analyzed by flow cytometry.

[12] = known; cited from earlier work
[13] = Toxicity, tolerability and seizures in mice
Protocol: as §2, §3
We performed a preliminary test with the two most promising analogues, compound 2A and compound 2B to verify their safety.

[14] = tested on: p38delta; assay: Gene expression (microarray, real time PCR) in HL-60 cells; assay type: cell-based, human
Protocol: FIG. 14 illustrates graphs showing 6BT and securinine regulate the expression of genes that may play important roles in myeloid differentiation. HL-60 cells were treated with the indicated compounds for 1 or 3 days and total RNA was prepared. The relative expression of the indicated genes was assessed by real time PCR.
In order to further assess the signaling pathways of 6BT and securinine as well as to further elucidate the myeloid differentiation program in general, gene microarray studies were performed. These initial studies assessed the gene expression pattern at 16 and 72 hours after treatment. […] Several of these genes are known to be involved in the differentiation of non-hematopoietic cells such as neuron, muscle, and or keratinocyte differentiation. Selected examples of genes whose expression is strongly regulated by securinine and 6BT that have been verified is seen in […].

[15] = tested on: OCI-AML3 cells; assay: NBT reduction assay in OCI-AML3 cells; assay type: cell-based; conditions: 4 days
Protocol: The two most promising compounds (compound 2A and compound 2B) were further tested for their differentiation activity in several additional AML cell lines as compared to securinine (FIG. 17). […] In all three cell lines tested, a dose of only 2.5 uM of compound 2B was sufficient to induce nearly complete differentiation.
The above indicated cells were treated for 4 days and the NBT reduction assay was performed. The X-axis refers to the cell treatments and the Y-axis denotes the percentage of differentiation as measured by the NBT Reduction assay.

[16] = tested on: c-myc; assay: c-myc expression by real time PCR in HL-60 cells; assay type: cell-based, human; conditions: 1, 3, or 5 days
Protocol: as §5

[17] = tested on: p44/p42 and p38; assay: Phospho-specific Western blot of p44/p42 and p38 in HL-60 cells; assay type: cell-based, human; conditions: 15 to 60 minutes
Protocol: FIG. 13 illustrates an immunoblot showing 6BT and Securinine activate both p44/p42 and p38. HL-60 cells were treated with the indicated compounds for 15, 20, 46, or 60 minutes and the cells were lysed. Western blot analysis was performed with phospho-specific antibodies to p44/p42 and p38 as well as the actin anibody.

[18] = tested on: 60 cancer cell lines; conditions: highest concentration used 100 μM; cited from earlier work

Structure (SMILES): CC1=C(/C=C/C(C)=C/C=C/C(C)=C/C(=O)O)C(C)(C)CCC1 [ATRA, all-trans-retinoic acid, reference compound]
- NBT reduction, ATRA alone (%) ([1]; ATRA 3 nM): 7%
- NBT reduction, ATRA alone (%) ([1]; ATRA 9 nM): 9%
- NBT reduction, ATRA alone (%) ([1]; ATRA 26 nM): 16%
- NBT reduction, ATRA alone (%) ([1]; ATRA 80 nM): 37%
- NBT reduction, ATRA alone (%) ([1]; ATRA 250 nM): 59%
- cells differentiated, NBT reduction assay [1]: ~95%
- tumor growth compared to vehicle treated mice ([2]; 15 mg/kg twice a day): did not show any difference in tumor growth
- CD11b positive ([3]; 1 μM): 77%
- CD14 positive ([3]; 1 μM): 8%

Structure (SMILES): Nc1ncn([C@H]2C[C@H](O)[C@@H](CO)O2)c(=O)n1 [Decitabine, reference compound]
- NBT reduction, Decitabine alone (%) ([1]; Decitabine 10 ng/ml): 14%
- NBT reduction, Decitabine alone (%) ([1]; Decitabine 50 ng/ml): 23%
- NBT reduction, Decitabine alone (%) ([1]; Decitabine 100 ng/ml): 26%

Structure (SMILES): O=C1C=C2C=C[C@H]3C[C@]2(O1)[C@@H]1CCCCN13 [Virosecurinine, virosecurinine]
- NBT (%) ([1]; 0.06 μM): 20%
- NBT (%) ([1]; 1.25 μM): 30%
- NBT (%) ([1]; 2.5 μM): 50%
- NBT (%) ([1]; 5 μM): 99%
- NBT (%) ([1]; 10 μM): 95%
- GABA A receptor affinity [4]: decreased GABA A receptor affinity

Structure (SMILES): O=C1C=C2C=C[C@@H]3C[C@@]2(O1)[C@@H]1CCCCN31 [Allosecurinine, allosecurinine]
- NBT (%) ([1]; 0.06 μM): 20%
- NBT (%) ([1]; 1.25 μM): 25%
- NBT (%) ([1]; 2.5 μM): 40%
- NBT (%) ([1]; 5 μM): 50%
- NBT (%) ([1]; 10 μM): 80%
- GABA A receptor affinity [4]: decreased GABA A receptor affinity

Structure (SMILES): O=C1C=C2C=C[C@@H]3C[C@@]2(O1)[C@H]1CCCCN31 [Securinine]
- morphologic changes [5]: clear morphologic changes suggestive of monocytic differentiation
- p21 protein level [6]: upregulated
- cells differentiated, NBT reduction assay [1]: ~95%
- concentration at which significant differentiation or cell death effects upon the leukemic cells occur ([1]; leukemic cells in our studies): ~10 µM
- enhancement of differentiation induced by ATRA and decitabine ([1]; low concentrations, NBT reduction assay): capable of enhancing the differentiation induced by both ATRA and decitabine
- toxicity on normal cells [7]: induced cell death occurred at doses higher than those required for activity on leukemia cells
- cell death of specific leukemic cell lines and primary patient samples [8]: quicly undergo cell death
- differentiation of other AML cell lines and primary patient leukemic samples ([8]; 6BT 10 mM, Securinine 15 mM, up to 7 days (FIG. 7)): effective in differentiating other AML cell lines besides HL-60 cells, as well as primary patient leukemic samples
- leukemia patient samples in which differentiation was induced ([8]; samples suitable for analysis): 8 of 10
- Bcl-2 protein level [9]: downregulation of Bcl-2
- CEBPβ expression [10]: time-dependent upregulation of CEBPβ
- cell cycle phase in which cells accumulate [11]: accumulation of cells in G0/G1
- metabolism in vivo [12]: extremely rapid metabolism in vivo
- seizures [12]: lead to seizures
- toxicity in mice ([13]; 20 mg/kg): no evident toxicities
- seizures in mice ([13]; dose approximately two fold higher than 20 mg/kg): lead to seizures
- p38delta expression [14]: upregulated
- differentiation activity in OCI-AML3 cells [15]: modest differentiation activity
- c-myc expression [16]: potently downregulate c-myc
- average tumor size smaller than vehicle treated mice at end of study ([2]; 20 mg/kg i.p. twice a day): more than 75%
- effect on growth of HL-60 subcutaneous tumors ([2]; 20 mg/kg once a day): could not detect any significant effects
- inhibition of established HL-60 subcutaneous leukemic tumor growth ([2]; first model, I.P. three times a week for 3 weeks from day 9): not Securinine was found to have significant in vivo activity
- CD11b positive ([3]; 10 μM): 87%
- CD14 positive ([3]; 10 μM): 86%
- synergy in upregulation of CD11b ([3]; with ATRA and decitabine, data not shown): synergize in the upregulation of CD11b
- phosphorylation of p44/p42 and p38 [17]: rapid phosphorylation of p44/p42 and p38
- average LD50 across the 60 cancer cell lines [18]: 97 µM

Structure (SMILES): Cc1cc(O)nc2cc3oc4ccccc4c3cc12 [Compound 375, 4-methyl[1]benzofuro[3,2-g]quinolin-2-ol]
- morphologic changes [5]: reproducible, but less pronounced changes
- cell cycle phase in which cells accumulate [11]: accumulation in G2/M
- CD11b positive ([3]; 10 μM): 64%
- CD14 positive ([3]; 10 μM): 19%

Structure (SMILES): C=C1/C(=C\C=C2/CCC[C@]3(C)[C@@H]([C@H](C)CCCC(C)(C)O)CC[C@@H]23)C[C@@H](O)C[C@@H]1O [Vitamin D, 1,25-dihydroxyvitamin D3, reference compound]
- CD11b positive ([3]; 100 nM): 90%
- CD14 positive ([3]; 100 nM): 65%
